Structures are written as SMILES. Numbered stars: 1 amine (or outer) side, 2 acyl side, 3 side chain; on linkers, the order of the positions; unused ones are H or OH. Bridge positions count the residues as written; N and C are the ends. Square brackets hold non-standard residues; d marks the D form. Peptide text beside a SMILES is read from it. I, II: the chains in the order shown. Phe(4-tBu) = CC(C)(C)c1ccc(C[C@H](N)C(=O)O)cc1; Diglycolyl = O=C(COCC(=O)[*:2])[*:1]; NMeR = CN[C@@H](CCCNC(=N)N)C(=O)O; β3hE = N[C@@H](CCC(=O)O)CC(=O)O; Pen = CC(C)(S)[C@H](N)C(=O)O

What is called IC50 is the point on the concentration scale where inhibition reaches its midpoint.

Sequence of α4β1 (P13612 34-1032): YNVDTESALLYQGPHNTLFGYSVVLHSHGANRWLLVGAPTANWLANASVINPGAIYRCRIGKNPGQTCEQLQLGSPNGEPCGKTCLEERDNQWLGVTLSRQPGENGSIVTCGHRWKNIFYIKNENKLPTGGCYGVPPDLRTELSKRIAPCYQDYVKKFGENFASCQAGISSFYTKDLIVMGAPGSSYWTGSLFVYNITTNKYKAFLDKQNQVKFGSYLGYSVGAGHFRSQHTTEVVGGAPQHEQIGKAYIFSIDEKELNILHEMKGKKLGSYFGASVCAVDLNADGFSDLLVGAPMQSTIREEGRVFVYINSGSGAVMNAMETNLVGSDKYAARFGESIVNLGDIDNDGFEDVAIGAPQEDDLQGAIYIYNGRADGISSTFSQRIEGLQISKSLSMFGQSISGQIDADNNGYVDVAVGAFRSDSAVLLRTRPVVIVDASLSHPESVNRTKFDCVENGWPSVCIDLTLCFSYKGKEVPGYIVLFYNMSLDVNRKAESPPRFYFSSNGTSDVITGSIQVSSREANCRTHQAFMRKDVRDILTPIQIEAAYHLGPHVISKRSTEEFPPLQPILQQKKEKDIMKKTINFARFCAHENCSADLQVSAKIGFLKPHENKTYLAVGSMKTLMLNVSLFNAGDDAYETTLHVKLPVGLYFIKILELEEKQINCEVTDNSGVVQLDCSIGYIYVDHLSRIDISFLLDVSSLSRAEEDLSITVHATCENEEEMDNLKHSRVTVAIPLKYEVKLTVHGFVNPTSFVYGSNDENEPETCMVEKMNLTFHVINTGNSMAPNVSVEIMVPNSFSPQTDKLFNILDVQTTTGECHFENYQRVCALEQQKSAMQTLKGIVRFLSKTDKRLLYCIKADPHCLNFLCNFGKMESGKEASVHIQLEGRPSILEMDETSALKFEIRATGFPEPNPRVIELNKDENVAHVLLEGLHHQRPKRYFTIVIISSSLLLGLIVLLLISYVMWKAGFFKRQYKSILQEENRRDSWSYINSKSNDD
Sequence of α4β1 (P05556 21-798): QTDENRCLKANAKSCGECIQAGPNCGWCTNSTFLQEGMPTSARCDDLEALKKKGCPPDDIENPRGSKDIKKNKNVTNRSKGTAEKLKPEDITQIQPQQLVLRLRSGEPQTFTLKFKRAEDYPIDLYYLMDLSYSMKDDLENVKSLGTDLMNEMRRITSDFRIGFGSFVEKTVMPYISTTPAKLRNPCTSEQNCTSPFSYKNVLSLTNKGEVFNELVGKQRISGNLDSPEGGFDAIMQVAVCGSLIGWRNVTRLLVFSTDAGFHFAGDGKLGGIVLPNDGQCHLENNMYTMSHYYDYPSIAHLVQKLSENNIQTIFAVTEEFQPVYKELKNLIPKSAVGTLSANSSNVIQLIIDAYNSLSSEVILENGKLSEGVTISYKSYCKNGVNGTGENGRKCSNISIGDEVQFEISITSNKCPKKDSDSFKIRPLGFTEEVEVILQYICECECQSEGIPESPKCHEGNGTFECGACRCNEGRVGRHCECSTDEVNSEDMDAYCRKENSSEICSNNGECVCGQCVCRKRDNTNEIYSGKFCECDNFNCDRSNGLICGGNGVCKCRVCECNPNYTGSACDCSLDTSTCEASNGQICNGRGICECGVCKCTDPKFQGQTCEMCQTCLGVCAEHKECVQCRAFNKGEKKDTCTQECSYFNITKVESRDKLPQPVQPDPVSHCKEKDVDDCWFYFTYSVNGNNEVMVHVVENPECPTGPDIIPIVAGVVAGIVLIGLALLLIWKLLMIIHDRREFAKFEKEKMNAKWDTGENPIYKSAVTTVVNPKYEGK

The test has as its target α4β1 (Homo sapiens, UniProt P05556+P13612). Nature of the test: α4β1-VCAM Cell Adhesion Assay (Jurkat E6.1 human cells). Set-up: host or cells: Jurkat E6.1 human T cells. It counts as cell-based. Particulars: Table 3-B, Selectivity (α4β1); range classes; read-out: α4β1 cell IC50. As for the experimental part: Jurkat E6.1 human cells (Sigma #88042803) were cultured in RPMI 1640 HEPES medium (Invitrogen #22400-089) supplemented with 10% serum (Fetal Bovine Serum, Invitrogen #16140-071), 1 mM sodium pyruvate (Invitrogen #11360-070), 2 mM L-glutamine (Invitrogen #25030-081) and Penicillin-Streptomycin (Invitrogen #15140-122) at 100 units of penicillin and 100 μg of streptomycin per ml. The cells were washed two times in DMEM medium (ATCC #30-2002) supplemented with 0.1% BSA, 10 mM HEPES pH 7 and 1 mM MnCl2. The cells were re-suspended in supplemented DMEM medium at a density of 4×10^6 cells/ml.
A Nunc MaxiSorp plate was coated with rh VCAM-1/CD106 Fc chimera (R&D #862-VC) at 400 ng per well in 50 ul per well in 1×PBS and incubated at 4° C. overnight. The solution was then removed by shaking, blocked with 250 ul per well PBS containing 1% BSA, and incubated at 37° C. for 1 hr. The solution was removed by shaking. Peptides were diluted by serial dilution in a final volume of 50 ul per well (2× concentration). To each well, 50 ul of cells (200,000 cells) were added and the plate was incubated at 37° C., 5% CO2 for 30-45 min to allow cell adhesion. The wells were washed manually three times (100 ul per wash) with supplemented DMEM. After the final wash, 100 ul/well of supplemented DMEM and 10 ul/well of MTT reagent (ATTC cat#30-1010K) were added. The plate was incubated at 37° C., 5% CO2 for 2-3 hrs until a purple precipitate was visible. 100 ul of Detergent Reagent (ATTC cat#30-1010K) was added to each well. The plate was covered from the light, wrapped in Parafilm to prevent evaporation, and left overnight at room temperature in the dark. The plate was shaken for 5 min and the absorbance at 570 nm was measured. To calculate the dose response, the absorbance value of control wells not containing cells was subtracted from each test well.
Take `CC(=O)N[C@@H]1C(=O)N(C)[C@@H](CCCNC(=N)N)C(=O)N[C@@H](CO)C(=O)N[C@@H](CC(=O)O)C(=O)N[C@@H]([C@@H](C)O)C(=O)N[C@@H](CC(C)C)C(=O)N[C@H](C(=O)N[C@@H](Cc2c[nH]c3ccccc23)C(=O)N[C@@H](CCC(=O)O)C(=O)N[C@H](CCCCNC(=O)COCC(=O)NCCCC[C@@H](NC(=O)[C@H](CCC(=O)O)NC(=O)[C@H](Cc2c[nH]c3ccccc23)NC(=O)[C@H]2NC(=O)[C@H](CC(C)C)NC(=O)[C@H]([C@@H](C)O)NC(=O)[C@H](CC(=O)O)NC(=O)[C@H](CO)NC(=O)[C@H](CCCNC(=N)N)N(C)C(=O)[C@@H](NC(C)=O)C(C)(C)SSC2(C)C)C(N)=O)C(N)=O)C(C)(C)SSC1(C)C` [compound 67] (I: Ac-[Pen][NMeR]SDTL[Pen]WE[dK]-NH2 / II: Ac-[Pen][NMeR]SDTL[Pen]WE[dK]-NH2; disulfide I:1-I:7, II:1-II:7; linker I:10-II:10 via Diglycolyl): the IC50 is more than 100 µM.

Regarding `CC(=O)N[C@@H]1C(=O)N(C)[C@@H](CCCNC(=N)N)C(=O)N[C@@H](CO)C(=O)N[C@@H](CC(=O)O)C(=O)N[C@@H]([C@@H](C)O)C(=O)N[C@@H](CC(C)C)C(=O)N[C@H](C(=O)N[C@@H](Cc2c[nH]c3ccccc23)C(=O)N[C@H](CCC(=O)O)C(=O)N[C@H](CCCCNC(=O)COCC(=O)NCCCC[C@@H](NC(=O)[C@@H](CCC(=O)O)NC(=O)[C@H](Cc2c[nH]c3ccccc23)NC(=O)[C@H]2NC(=O)[C@H](CC(C)C)NC(=O)[C@H]([C@@H](C)O)NC(=O)[C@H](CC(=O)O)NC(=O)[C@H](CO)NC(=O)[C@H](CCCNC(=N)N)N(C)C(=O)[C@@H](NC(C)=O)C(C)(C)SSC2(C)C)C(N)=O)C(N)=O)C(C)(C)SSC1(C)C` [compound 68] (I: Ac-[Pen][NMeR]SDTL[Pen]W[dE][dK]-NH2 / II: Ac-[Pen][NMeR]SDTL[Pen]W[dE][dK]-NH2; disulfide I:1-I:7, II:1-II:7; linker I:10-II:10 via Diglycolyl), the IC50 was more than 100 µM.

In the case of `CC(=O)N[C@@H]1C(=O)N(C)[C@@H](CCCNC(=N)N)C(=O)N[C@@H](CO)C(=O)N[C@@H](CC(=O)O)C(=O)N[C@@H]([C@@H](C)O)C(=O)N[C@@H](CC(C)C)C(=O)N[C@H](C(=O)N[C@@H](Cc2c[nH]c3ccccc23)C(=O)N[C@@H](CCC(=O)O)C(=O)N[C@H](CCCCNC(=O)COCC(=O)NCCCC[C@@H](NC(=O)[C@H](CCC(=O)O)NC(=O)[C@H](Cc2c[nH]c3ccccc23)NC(=O)[C@H]2NC(=O)[C@H](CC(C)C)NC(=O)[C@H]([C@@H](C)O)NC(=O)[C@H](CC(=O)O)NC(=O)[C@H](CO)NC(=O)[C@H](CCCNC(=N)N)N(C)C(=O)[C@@H](NC(C)=O)C(C)(C)SSC2(C)C)C(=O)O)C(=O)O)C(C)(C)SSC1(C)C` [compound 78] (I: Ac-[Pen][NMeR]SDTL[Pen]WE[dK]-OH / II: Ac-[Pen][NMeR]SDTL[Pen]WE[dK]-OH; disulfide I:1-I:7, II:1-II:7; linker I:10-II:10 via Diglycolyl), the IC50 was more than 100 µM.

Take `CC(=O)N[C@@H]1C(=O)N(C)[C@@H](CCCNC(=N)N)C(=O)N[C@@H](CO)C(=O)N[C@@H](CC(=O)O)C(=O)N[C@@H]([C@@H](C)O)C(=O)N[C@@H](CC(C)C)C(=O)N[C@H](C(=O)N[C@@H](Cc2ccc(C(C)(C)C)cc2)C(=O)N[C@@H](CCC(=O)O)CC(=O)N[C@H](CCCCNC(=O)COCC(=O)NCCCC[C@@H](NC(=O)C[C@H](CCC(=O)O)NC(=O)[C@H](Cc2ccc(C(C)(C)C)cc2)NC(=O)[C@H]2NC(=O)[C@H](CC(C)C)NC(=O)[C@H]([C@@H](C)O)NC(=O)[C@H](CC(=O)O)NC(=O)[C@H](CO)NC(=O)[C@H](CCCNC(=N)N)N(C)C(=O)[C@@H](NC(C)=O)C(C)(C)SSC2(C)C)C(N)=O)C(N)=O)C(C)(C)SSC1(C)C` [compound 132] (I: Ac-[Pen][NMeR]SDTL[Pen][Phe(4-tBu)][β3hE][dK]-NH2 / II: Ac-[Pen][NMeR]SDTL[Pen][Phe(4-tBu)][β3hE][dK]-NH2; disulfide I:1-I:7, II:1-II:7; linker I:10-II:10 via Diglycolyl): the IC50 was more than 100 µM.

The record behind these values is US9809623B2, “α4β7 peptide monomer and dimer antagonists” (Protagonist Therapeutics, Inc., priority 2014, dated 2017).
